Experimental data published in ChEMBL document CHEMBL4368924, “Synthesis and biological evaluation of nitroxide labeled pyrimidines as Aurora kinase inhibitors” (Bioorg Med Chem Lett, 2019).
Activity calls are given as the source filed them. The rule behind the calls is not given here.

Tests used:
HeLa [1] = test: Antiproliferative activity against human HeLa cells after 48 hrs by MTT assay; type: functional, cell-based
A549 = test: Antiproliferative activity against human A549 cells after 48 hrs by MTT assay; type: functional, cell-based
HepG2 = test: Antiproliferative activity against human HepG2 cells after 48 hrs by MTT assay; type: functional, cell-based
LoVo = test: Antiproliferative activity against human LoVo cells after 48 hrs by MTT assay; type: functional, cell-based
Aurora kinase A = biological target: T1, Aurora kinase A (Homo sapiens, UniProt O14965); test: Inhibition of aurora A (unknown origin) using Kemptide as substrate after 60 mins by ADP-Glo luminescence assay
T1 sequence (O14965 whole entry): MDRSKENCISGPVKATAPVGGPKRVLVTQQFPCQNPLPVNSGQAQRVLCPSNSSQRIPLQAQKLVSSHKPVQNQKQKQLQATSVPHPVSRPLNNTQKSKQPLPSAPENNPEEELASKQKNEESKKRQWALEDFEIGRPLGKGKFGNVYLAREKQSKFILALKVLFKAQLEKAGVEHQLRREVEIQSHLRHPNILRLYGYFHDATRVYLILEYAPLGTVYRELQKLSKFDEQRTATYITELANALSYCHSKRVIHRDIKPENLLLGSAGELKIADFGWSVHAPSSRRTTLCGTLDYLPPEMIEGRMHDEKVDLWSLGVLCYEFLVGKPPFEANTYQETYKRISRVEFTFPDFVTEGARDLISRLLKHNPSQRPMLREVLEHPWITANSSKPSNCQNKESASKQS

Homo sapiens = organism: Homo sapiens; test: Inhibition of PI3K (unknown origin) using Kemptide as substrate at 1 uM after 60 mins by ADP-Glo luminescence assay relative to control
Aurora kinase B [2] = biological target: T2, Aurora kinase B (Homo sapiens, UniProt Q96GD4); test: Inhibition of aurora B (unknown origin) using Kemptide as substrate after 60 mins by ADP-Glo luminescence assay
[3] = biological target: T3, Aurora kinase A (Homo sapiens) (UniProt O14965); test: Inhibition of aurora A (unknown origin) using Kemptide as substrate at 1 uM after 60 mins by ADP-Glo luminescence assay relative to control
T3 sequence (whole entry): T1 sequence (O14965 whole entry)

[4] = biological target: Activin receptor type-1-like (Homo sapiens) (UniProt P37023); test: Inhibition of ALK1 (unknown origin) using Kemptide as substrate at 1 uM after 60 mins by ADP-Glo luminescence assay relative to control
[5] = biological target: Vascular endothelial growth factor receptor 2 (Homo sapiens) (UniProt P35968); test: Inhibition of VEGFR2 (unknown origin) using Kemptide as substrate at 1 uM after 60 mins by ADP-Glo luminescence assay relative to control
Aurora kinase B [6] = biological target: T2, Aurora kinase B; test: Inhibition of aurora B (unknown origin) using Kemptide as substrate at 1 uM after 60 mins by ADP-Glo luminescence assay relative to control
[7] = biological target: RAC-alpha serine/threonine-protein kinase (Homo sapiens) (UniProt P31749); test: Inhibition of AKT (unknown origin) using Kemptide as substrate at 1 uM after 60 mins by ADP-Glo luminescence assay relative to control
[8] = biological target: T3, Aurora kinase A (Homo sapiens); test: Inhibition of aurora A phosphorylation at Thr288 residues in human HeLa cells after 24 hrs by immunofluorescence assay; type: cell-based
[9] = biological target: T3, Aurora kinase A (Homo sapiens); test: Inhibition of aurora A in human HeLa cells assessed as decrease in Eg5 level after 24 hrs by Western blot analysis; type: cell-based
Aurora kinase B [10] = biological target: T2, Aurora kinase B; test: Inhibition of aurora B in human HeLa cells assessed as decrease in HisH3 phosphorylation at ser10 residues after 24 hrs by Western blot analysis; type: cell-based
HeLa [11] = test: Induction of morphological changes in human HeLa cells assessed as disrupting mitotic spindle formation at 5 uM after 24 hrs by DAPI-staining based immunofluorescence assay; type: functional, cell-based
Aurora kinase B [12] = biological target: T2, Aurora kinase B; test: Inhibition of aurora B phosphorylation at Thr232 residues in human HeLa cells after 24 hrs by immunofluorescence assay; type: cell-based
[13] = biological target: T3, Aurora kinase A (Homo sapiens); test: Inhibition of aurora A in human HeLa cells assessed as decrease in Bora level after 24 hrs by Western blot analysis; type: cell-based
[14] = biological target: T3, Aurora kinase A (Homo sapiens); test: Inhibition of aurora A in human HeLa cells assessed as decrease in TPX2 level after 24 hrs by Western blot analysis; type: cell-based

T2 sequence (Q96GD4 whole entry): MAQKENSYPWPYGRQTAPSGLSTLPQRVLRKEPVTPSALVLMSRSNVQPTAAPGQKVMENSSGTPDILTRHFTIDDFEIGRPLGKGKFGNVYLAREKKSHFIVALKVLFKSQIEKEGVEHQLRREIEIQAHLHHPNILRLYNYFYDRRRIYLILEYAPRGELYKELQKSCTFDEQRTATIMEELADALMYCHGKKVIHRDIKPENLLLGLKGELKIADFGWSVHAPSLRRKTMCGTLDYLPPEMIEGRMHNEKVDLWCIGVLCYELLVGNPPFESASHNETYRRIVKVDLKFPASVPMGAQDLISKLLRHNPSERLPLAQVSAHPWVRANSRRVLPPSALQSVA
Chain of RAC-alpha serine/threonine-protein kinase (Homo sapiens) (P31749 whole entry): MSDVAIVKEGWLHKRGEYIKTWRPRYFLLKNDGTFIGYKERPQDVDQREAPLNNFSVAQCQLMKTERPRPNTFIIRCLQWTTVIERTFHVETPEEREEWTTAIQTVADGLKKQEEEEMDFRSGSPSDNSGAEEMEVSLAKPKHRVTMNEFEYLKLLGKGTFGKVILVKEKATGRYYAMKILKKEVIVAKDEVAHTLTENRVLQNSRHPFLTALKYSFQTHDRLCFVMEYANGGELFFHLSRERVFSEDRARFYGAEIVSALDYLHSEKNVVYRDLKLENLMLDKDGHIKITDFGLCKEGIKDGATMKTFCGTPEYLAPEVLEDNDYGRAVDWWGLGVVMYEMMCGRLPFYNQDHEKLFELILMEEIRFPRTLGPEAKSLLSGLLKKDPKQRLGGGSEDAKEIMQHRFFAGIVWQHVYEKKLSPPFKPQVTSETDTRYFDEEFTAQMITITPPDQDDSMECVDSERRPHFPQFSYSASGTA
Chain of Vascular endothelial growth factor receptor 2 (Homo sapiens) (P35968 whole entry): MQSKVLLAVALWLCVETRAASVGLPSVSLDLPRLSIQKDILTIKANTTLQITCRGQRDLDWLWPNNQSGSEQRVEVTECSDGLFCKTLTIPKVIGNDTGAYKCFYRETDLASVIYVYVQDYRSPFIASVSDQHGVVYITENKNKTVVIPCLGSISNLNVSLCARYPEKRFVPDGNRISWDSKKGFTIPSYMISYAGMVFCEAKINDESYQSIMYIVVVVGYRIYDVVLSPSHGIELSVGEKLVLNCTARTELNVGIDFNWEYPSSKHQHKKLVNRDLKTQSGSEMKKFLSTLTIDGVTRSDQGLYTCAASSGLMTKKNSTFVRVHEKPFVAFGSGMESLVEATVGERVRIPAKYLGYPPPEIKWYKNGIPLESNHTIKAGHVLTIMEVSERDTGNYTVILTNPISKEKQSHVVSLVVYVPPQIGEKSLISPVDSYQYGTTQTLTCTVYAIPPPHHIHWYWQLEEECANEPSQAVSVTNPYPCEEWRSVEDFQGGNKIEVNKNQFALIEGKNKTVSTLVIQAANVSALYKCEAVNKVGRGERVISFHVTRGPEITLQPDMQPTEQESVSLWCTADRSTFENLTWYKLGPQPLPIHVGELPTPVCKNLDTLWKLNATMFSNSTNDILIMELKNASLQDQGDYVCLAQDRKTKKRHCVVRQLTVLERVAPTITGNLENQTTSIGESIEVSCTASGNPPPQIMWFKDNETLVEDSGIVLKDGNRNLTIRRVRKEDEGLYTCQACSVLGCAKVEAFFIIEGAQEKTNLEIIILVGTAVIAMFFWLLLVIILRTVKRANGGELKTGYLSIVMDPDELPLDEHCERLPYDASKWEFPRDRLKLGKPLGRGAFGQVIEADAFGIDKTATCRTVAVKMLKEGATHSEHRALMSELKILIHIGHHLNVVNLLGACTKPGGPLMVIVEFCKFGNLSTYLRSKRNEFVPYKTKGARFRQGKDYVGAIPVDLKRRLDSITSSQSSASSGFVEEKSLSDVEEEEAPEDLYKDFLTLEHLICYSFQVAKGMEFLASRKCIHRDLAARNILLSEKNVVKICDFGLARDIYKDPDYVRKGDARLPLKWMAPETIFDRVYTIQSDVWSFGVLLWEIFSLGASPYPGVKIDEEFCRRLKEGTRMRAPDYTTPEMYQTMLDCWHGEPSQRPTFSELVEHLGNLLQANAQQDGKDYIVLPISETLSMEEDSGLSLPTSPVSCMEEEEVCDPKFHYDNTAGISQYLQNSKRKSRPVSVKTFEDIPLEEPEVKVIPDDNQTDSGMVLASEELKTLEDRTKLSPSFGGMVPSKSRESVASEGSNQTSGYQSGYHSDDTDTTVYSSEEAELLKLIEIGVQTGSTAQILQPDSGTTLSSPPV
Chain of Activin receptor type-1-like (Homo sapiens) (P37023 whole entry): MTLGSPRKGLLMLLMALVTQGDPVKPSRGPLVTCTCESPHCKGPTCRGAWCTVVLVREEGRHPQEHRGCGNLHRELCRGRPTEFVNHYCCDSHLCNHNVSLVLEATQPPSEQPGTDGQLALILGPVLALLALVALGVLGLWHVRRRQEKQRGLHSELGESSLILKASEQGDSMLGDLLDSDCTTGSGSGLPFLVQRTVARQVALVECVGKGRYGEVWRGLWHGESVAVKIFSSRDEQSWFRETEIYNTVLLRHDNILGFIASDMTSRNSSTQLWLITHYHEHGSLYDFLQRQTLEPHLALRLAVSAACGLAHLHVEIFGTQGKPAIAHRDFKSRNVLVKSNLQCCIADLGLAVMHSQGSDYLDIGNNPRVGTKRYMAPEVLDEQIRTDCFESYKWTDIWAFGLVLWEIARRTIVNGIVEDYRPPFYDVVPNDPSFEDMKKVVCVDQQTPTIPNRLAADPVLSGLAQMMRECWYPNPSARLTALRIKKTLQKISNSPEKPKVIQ

SMILES | IC50 (HeLa [1]; hela) | IC50 (A549; a549) | IC50 (HepG2; hepg2) | IC50 (LoVo; lovo) | further results
CC1(C)CC(NC(=O)c2ccc(Nc3ncc([N+](=O)[O-])c(NC4CCCC4)n3)cc2)CC(C)(C)N1[O] | 55.6 µM | 33200 nM | 28.7 µM | 41.2 µM | –
CCOC(=O)Cc1csc(Nc2nc(Nc3ccc(C(=O)NC4CC(C)(C)N([O])C(C)(C)C4)cc3)ncc2[N+](=O)[O-])n1 | 12 µM | 1040 nM | 26.4 µM | 27 µM | –
Cc1cc(Nc2nc(Nc3ccc(C(=O)NC4CC(C)(C)N([O])C(C)(C)C4)cc3)ncc2F)no1 | – | – | – | – | IC50 (Aurora kinase A): 20.1 nM; inhibition (Homo sapiens): 18%; IC50 (HeLa [1]; Homo sapiens, HeLa, 48 h): 5.68 µM; IC50 (A549; Homo sapiens, A549, 48 h): 880 nM; IC50 (Aurora kinase B [2]): 17.3 nM; IC50 (HepG2; Homo sapiens, HepG2, 48 h): 10.8 µM; inhibition [3]: 69%; IC50 (LoVo; Homo sapiens, LoVo, 48 h): 12 µM; inhibition [4]: 39%; inhibition [5]: 57%; inhibition (Aurora kinase B [6]): 76.5%; inhibition [7]: 0%
Cc1cc(Nc2nc(Nc3ccc(C(=O)NC4CC(C)(C)N([O])C(C)(C)C4)cc3)ncc2[N+](=O)[O-])no1 | 7.36 µM | 1140 nM | 7.36 µM | 26.8 µM | –
CCCCOC(=O)Cc1csc(Nc2nc(Nc3ccc(C(=O)NC4CC(C)(C)N([O])C(C)(C)C4)cc3)ncc2F)n1 | 5.23 µM | 2310 nM | 11.5 µM | 21.9 µM | –
Cc1cc(Nc2nc(Nc3ccc(C(=O)NC4CC(C)(C)N([O])C(C)(C)C4)cc3)ncc2F)n[nH]1 | 11.2 µM | 2120 nM | 10.8 µM | 42.2 µM | –
CC1(C)CC(NC(=O)c2ccc(Nc3ncc([N+](=O)[O-])c(N4CCN(c5ccc(F)cc5)CC4)n3)cc2)CC(C)(C)N1[O] | 25.3 µM | 10200 nM | 13.1 µM | 27.8 µM | –
Cc1cc(Nc2cc(N3CCN(C)CC3)nc(Sc3ccc(NC(=O)C4CC4)cc3)n2)n[nH]1 [TOZASERTIB] | – | – | – | – | IC50 (HeLa [1]; Homo sapiens, HeLa, 48 h): 46.2 µM; IC50 (A549; Homo sapiens, A549, 48 h): 35800 nM; IC50 (HepG2; Homo sapiens, HepG2, 48 h): 53.3 µM; IC50 (LoVo; Homo sapiens, LoVo, 48 h): 45.3 µM
Cc1cc(Nc2nc(Nc3ccc(C(=O)NC4CC(C)(C)N([O])C(C)(C)C4)cc3)ncc2[N+](=O)[O-])n[nH]1 | 29.1 µM | 15300 nM | 37.5 µM | > 100 µM | –
CCCCOC(=O)Cc1cc(Nc2nc(Nc3ccc(C(=O)NC4CC(C)(C)N([O])C(C)(C)C4)cc3)ncc2F)n[nH]1 | – | – | – | – | IC50 (Aurora kinase A): 9.3 nM; inhibition (Homo sapiens): 7%; IC50 (HeLa [1]; Homo sapiens, HeLa, 48 h): 2.72 µM; inhibition [8]: Dose-dependent effect; IC50 (A549; Homo sapiens, A549, 48 h): 890 nM; IC50 (Aurora kinase B [2]): 2.8 nM; IC50 (HepG2; Homo sapiens, HepG2, 48 h): 5.73 µM; inhibition [3]: 84.5%; IC50 (LoVo; Homo sapiens, LoVo, 48 h): 11.4 µM; inhibition [9]: Dose-dependent effect; inhibition (Aurora kinase B [10]): Dose-dependent effect; inhibition [4]: 33.5%; inhibition [5]: 35.5%; Activity (HeLa [11]): Active; inhibition (Aurora kinase B [12]): Dose-dependent effect; inhibition [13]: Dose-dependent effect; inhibition (Aurora kinase B [6]): 90.5%; inhibition [14]: Dose-dependent effect; inhibition [7]: 0%
CCOC(=O)c1csc(Nc2nc(Nc3ccc(C(=O)NC4CC(C)(C)N([O])C(C)(C)C4)cc3)ncc2[N+](=O)[O-])n1 | 3.79 µM | 740 nM | 6.87 µM | 12.5 µM | –
CCN1CCN(c2nc(Nc3ccc(C(=O)NC4CC(C)(C)N([O])C(C)(C)C4)cc3)ncc2[N+](=O)[O-])CC1 | 17.5 µM | 1960 nM | 56.8 µM | 39.7 µM | –
CC1(C)CC(NC(=O)c2ccc(Nc3ncc(F)c(N4CCOCC4)n3)cc2)CC(C)(C)N1[O] | 14.3 µM | 13200 nM | 22.6 µM | 35.5 µM | –
CC1(C)CC(NC(=O)c2ccc(Nc3ncc(F)c(NCCCNc4ccc([N+](=O)[O-])cc4)n3)cc2)CC(C)(C)N1[O] | 31.7 µM | 12400 nM | 19.8 µM | 53.6 µM | –
CC(C)OC(=O)Cc1csc(Nc2nc(Nc3ccc(C(=O)NC4CC(C)(C)N([O])C(C)(C)C4)cc3)ncc2F)n1 | 11.2 µM | 3420 nM | 13.4 µM | 11.9 µM | –
